According to paper PMC2682793, “Enhanced muscarinic M1 receptor gene expression in the corpus striatum of streptozotocin-induced diabetic rats” (Journal of Biomedical Science, 2009):

Molecular target: T1, total muscarinic receptor
T1 construct: gene Chrm1
Format: biochemical, Rattus norvegicus
Conditions: control rats; striatal membranes; 1 nM [3H]QNB; Tris-HCl-EDTA pH 7.4; 22°C; one-site fit; unit not printed (concentrations in M); logarithmic value; EC50 stated to be same as IC50
Source text: [3H]QNB displacement, filtration on total muscarinic receptor

CN1[C@@H]2CC[C@H]1CC(OC(=O)C(CO)c1ccccc1)C2 (stereo partly shown) [atropine]
Log (EC50): -7.076
